Measured values reported in PMC9549030, “Structural basis for specific inhibition of the deubiquitinase UCHL1” (Nature Communications, 2022).
Where a chain is given by its changes, count along the chain named. Several values for one entry are separate records, joined by “and”; a condition that tells them apart may be missing. Identical values can stand only once.

Legend:
[1] = system: monoubiquitin in U-87 MG cells; assay: Quantification of monoubiquitin levels; type: cell-based, human; conditions: 48 h; for monoubiquitin intensity normalized to DMSO (= 1): independent experiments
Experimental: U-87 MG cells (5 × 10^5/well) were seeded in six-well plates and cultivated for 8 h. Cells were transfected with siRNA as described above. On the next day, cells were cultured in fresh media supplemented with either compounds (final conc. 5 µM) or DMSO, where indicated, for a further 48 h. The media was changed every 24 h to a fresh medium supplemented with compounds (final conc. 5 µM) or DMSO. […] Monoubiquitin band intensities were first normalized to α-tubulin or total protein (Fast Green FCF, TCI) and subsequently normalized to the intensities of monoubiquitin bands in the sample treated with DMSO or siScr (where no DMSO was used) which was set to “1”.

UCHL3 A11I,L168F = assay: Intact protein mass spectrometry; type: binding, human; conditions: enzyme 3 µM; compound 10 µM; 1 h
Source text: (§1) Spectra were deconvoluted with ProMass (Enovatia).

UCHL1 [2] = target: T1, UCHL1 (Homo sapiens, UniProt P09936); assay: Identification of probe-labeled proteins with mass spectrometry (pulldown enrichment); conditions: HEK293 cells, 24 h
T1 sequence (P09936 1-223): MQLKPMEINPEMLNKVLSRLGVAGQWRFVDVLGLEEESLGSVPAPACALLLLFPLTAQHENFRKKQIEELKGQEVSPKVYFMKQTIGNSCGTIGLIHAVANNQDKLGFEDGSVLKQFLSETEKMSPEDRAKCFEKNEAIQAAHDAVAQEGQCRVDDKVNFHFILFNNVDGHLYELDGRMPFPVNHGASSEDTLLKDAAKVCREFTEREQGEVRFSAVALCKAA
Experimental: Cells were cultured, treated with a compound, and lysed as described above. The cell lysate was diluted to a protein concentration of 2 mg/mL with ABP lysis buffer. 1 µL of each click reagent (see above) were added to each sample, followed by an incubation period of one hour at room temperature with protection from light. The sample volume was adjusted to 1000 µL with PBS and 30 µL of a NeutrAvidin (Thermo Fisher) bead slurry (prewashed 3x with PBS) were added to each sample. The samples were incubated for one hour to overnight on a rotator at 15 rpm at 4 °C. Beads were pelleted by centrifugation, the supernatant was discarded, and the beads were washed six times (1x with ½x lysis buffer, followed by five washes with PBS). After removing the washing solution completely, the beads were subjected to reduction with dithiothreitol (1 mM), alkylation with chloroacetamide (5 mM) and on-bead digestion with first LysC (Serva Biotech, 1 h, 37 °C), followed by trypsin (Sigma Aldrich, 1 h, overnight). Tryptic peptides were desalted with C18 StageTips and analyzed by nano-HPLC-MS/MS.
An Ultimate 3000 RSLC nano-HPLC system and a Hybrid-Orbitrap mass spectrometer (Q Exactive Plus) equipped with a nano-spray source (Thermo Fisher Scientific) was used. The protein fragments were enriched on a C18 PepMap 100 column (5 μm, 100 Å, 300 μm ID * 5 mm, Dionex) using 0.1% TFA, at a flow rate of 30 μL/min, for 5 min and separated on a C18 PepMap 100 column (3 μm, 100 Å, 75 μm ID × 50 cm) using a linear gradient (5–30% ACN/H2O + 0.1% formic acid over 90 min) with a flow rate of 300 nL/min. […] Signals in the mass range of m/z 300 to 1650 were acquired at a resolution of 70,000 for the full scan, followed by ten high-energy collision-dissociation (HCD) MS/MS scans of the most intense at least doubly charged ions at a resolution of 17,500. Proteins were relatively quantified by using MaxQuant[60] v.2.0.3.1, including the Andromeda search algorithm and searching the Homo sapiens reference proteome of the UniProt database. Briefly, an MS/MS ion search was performed for enzymatic trypsin cleavage, allowing two missed cleavages. Carbamidomethylation was set as a fixed protein modification, and oxidation of methionine and acetylation of the N-terminus were set as variable modifications. The mass accuracy was set to 20 parts per million (ppm) for the first search and to 4.5 ppm for the second search. The false discovery rates for peptide and protein identification were set to 0.01. Only proteins for which at least two peptides were quantified were chosen for further validation. Relative quantification of proteins was performed by using the label-free quantification algorithm implemented in MaxQuant. Statistical data analysis of pulldown samples was performed using Perseus[61] v.1.6.15.0, including proteins which were identified in at least four of the five biological replicates which were used per condition. Label-free quantification (LFQ) intensities were log-transformed (log2); replicate samples were grouped together. Pairwise comparisons of groups were performed separately. Missing values were imputed using small normally distributed values (width 0.3, downshift 1.8) and a two-sided t-test (s0 = 5, FDR = 0.001) was performed.

DUBs in HEK293 lysate = assay: Activity-based protein profiling in the lysate with Ub-VS competition; type: binding, human; conditions: 1 µM, 1 h
Experimental: Cells (4 × 10^6) were seeded in 10 cm dishes and grown to 90% confluency. The medium was aspirated, cells were washed with ice-cold PBS, treated with 600 µL ABP lysis buffer (1% (v/v) IGEPAL, 50 mM Tris, 150 mM NaCl, 5% glycerol, pH 8, cOmplete protease inhibitor cocktail), and incubated on ice for 15 min. The lysed cells were scrapped off the dish, cleared by centrifugation, and the protein concentration was determined via a Bradford assay. […] Each compound was diluted to a 2x concentration in PBS buffer from a 10 mM stock in DMSO (final concentration: 1 µM). Then each compound dilution or a DMSO dilution was mixed with cell lysate and incubated for one hour at room temperature. […] Samples were resolved by SDS-PAGE using a 4–12% Bis-Tris gel (Invitrogen, NuPAGE) with MES SDS running buffer for 50 min at 180 V. Fluorescence was read out using the Alexa564 (λex/em 520–545/577–613 nm, for TAMRA) and Alexa680 (λex/em 650–675/700–730 nm, for the PageRuler Prestained NIR Protein Ladder (Thermo Scientific)) channels on a ChemiDoc MP Imaging System (Bio-Rad).

UCHL3 = target: T2, UCHL3 (Homo sapiens, UniProt P15374); assay: Intact protein mass spectrometry; type: binding; conditions: enzyme 3 µM; compound 10 µM; 1 h
T2 sequence (P15374 1-230): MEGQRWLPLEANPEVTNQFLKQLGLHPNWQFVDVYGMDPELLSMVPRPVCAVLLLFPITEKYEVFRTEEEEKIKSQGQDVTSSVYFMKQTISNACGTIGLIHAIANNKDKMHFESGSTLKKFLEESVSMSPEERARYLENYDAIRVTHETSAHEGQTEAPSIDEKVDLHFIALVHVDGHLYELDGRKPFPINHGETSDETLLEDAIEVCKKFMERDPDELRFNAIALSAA
Source text: as §1

UCHL3 L168F = target: T3, UCHL3 L168F (Homo sapiens, UniProt P15374, L168F); assay: Intact protein mass spectrometry; type: binding; conditions: enzyme 3 µM; compound 10 µM; 1 h
T3 sequence (P15374 1-230 L168F): T2 sequence (P15374 1-230) with L168F
Source text: as §1

UCHL3 A11I = target: T4, UCHL3 A11I (Homo sapiens, UniProt P15374, A11I); assay: Intact protein mass spectrometry; type: binding; conditions: enzyme 3 µM; compound 10 µM; 1 h
T4 sequence (P15374 1-230 A11I): T2 sequence (P15374 1-230) with A11I
Source text: as §1

UCHL1 [3] = target: T1, UCHL1; assay: Intact protein mass spectrometry; type: binding; conditions: compound 10 µM
Source text: as §1

UCHL3 A11I+L168F = target: T5, UCHL3 A11I+L168F (Homo sapiens, UniProt P15374, A11I/L168F); assay: Ub-Rhodamine (Ubiquitin rhodamine cleavage) assay; type: biochemical
T5 sequence (P15374 1-230 A11I/L168F): T2 sequence (P15374 1-230) with A11I, L168F

UCHL1 [4] = target: T1, UCHL1; assay: Thermal shift assay; type: binding; conditions: UCHL1 1 µM, 1 h, replicates
Experimental: Reactions were performed in white 96-well PCR plates (Bio-Rad). UCHL1 was diluted in thermal shift buffer (1x PBS, 5 mM DTT) to a 4x concentration of 4 µM. The protein was then mixed with 4x compound dissolved in thermal shift buffer in a 1:1 ratio. To each well was added 20 µL of DUB-Inhibitor solution, followed by 1 h incubation time. To each well was then added 20 µL 4x SYPRO Orange in thermal shift buffer. After sealing the plates with a transparent film, thermal denaturation (gradient: 20–90 °C; Increment: 0.3 °C, hold for 5 s before read) was performed and monitored by a Bio-Rad Connect cycler.

Question: Which results are given for `C#CCCCNC(=O)c1ccc(-n2cnc(NC(=O)[C@H]3CCN(C#N)C3)c2)cc1` [GK13S]?
Answer: levels of free monoubiquitin (western blot) ([1]; 5 µM): reduced; monoubiquitin intensity normalized to DMSO (= 1) ([1]; siSCr, 5 µM): 0.576 and 0.6744 and 0.83 and 0.6532; monoubiquitin intensity normalized to DMSO (= 1) ([1]; siUCHL3, 5 µM): 0.757 and 0.6937 and 0.5404 and 0.5552 and 0.8593 and 0.6907; protein species observed after compound treatment (UCHL3 A11I,L168F): + 1x GK13S; change in log2 enrichment values of UCHL1, GK13S vs GK13R (UCHL1 [2]; 1 µM): 2; change in log2 enrichment values of UCHL1, GK13S vs GK16S (UCHL1 [2]; 1 µM): 5; difference in UCHL1 enrichment, GK13S vs GK13R (UCHL1 [2]; 1 µM): fourfold; difference in UCHL1 enrichment, GK13S vs GK16S (UCHL1 [2]; 1 µM): > 32 fold; enrichment factor of UCHL1 (log2, vs DMSO) (UCHL1 [2]; 1 µM): 8 and > 8; enrichment of UCHL1 vs DMSO (UCHL1 [2]; 5 µM): ~ 3000 fold; logarithmic enrichment factor of UCHL1 (log2, vs DMSO) (UCHL1 [2]; 5 µM): 11.5; DUB engagement (Ub-VS competitive labeling) (DUBs in HEK293 lysate): Ubiquitin-probe competitive band of approx. 30 kDa; protein species observed after compound treatment (UCHL3): free UCHL3; protein species observed after compound treatment (UCHL3 L168F): free UCHL3 L168F; protein species observed after compound treatment (UCHL3 A11I): free UCHL3 A11I; stoichiometry of covalent binding to UCHL1 (UCHL1 [3]; UCHL1 3 µM, 16 h): bound only once; protein species observed after compound treatment (UCHL1 [3]; enzyme 3 µM, 1 h): UCHL1 + 1x GK13S; IC50 (UCHL3 A11I+L168F): 11 ± 2 µM; melting temperature (Tm) of UCHL1 (UCHL1 [4]; compound 1.25 µM): 59.1 and 58.5; melting temperature (Tm) of UCHL1 (UCHL1 [4]; compound 2.5 µM): 58.8 and 59.1; melting temperature (Tm) of UCHL1 (UCHL1 [4]; compound 5 µM): 59.1
